Measured values reported in patent US10253011B1, “Lubiprostone crystals and methods for preparing the same” (CHIROGATE INTERNATIONAL INC., priority 2018, dated 2019).

Assays:
Assay type in all cases: physicochemical
[1] = Storage stability of Lubiprostone crystal V (crystalline form and degradation to impurity A); settings: six months of storage at about −20° C.
[2] = Crystal form transformation of Lubiprostone crystal V stirred in isopropyl acetate/heptane, XRPD; settings: stirred in isopropyl acetate (0.16 ml)/heptane (0.84 ml) at 20° C., within two hours
Experimental: X-ray Powder Diffraction (XRPD) Analysis: The XRPD patterns were collected on a Bruker D2 PHASER diffractometer with fixed divergence slits and 1D LYNXEYE detector. The samples (ca. 100 mg) were flatly placed on a sample holder. The prepared samples were analyzed over a 2θ range from 5° to 50° with step size of 0.02 degrees and step time of 1 second using CuKα radiation at a power of 10 mA and 30 kV. The CuKβ radiation was removed by a divergent beam nickel filter.
Lubiprostone crystal V (0.20 g, from Example 9) was added to a mixture of isopropyl acetate (0.16 ml) and heptane (0.84 ml)(i.e., the solvent system for crystallization of US 2010/056808), and the mixture was stirred at 20° C. for 2 hours. The resulting suspension was filtered and rinsed, and then dried under high vacuum at room temperature to give Lubiprostone crystal I. The XRPD results are shown in FIGS. 12(a) and 12(b).
Therefore, the Lubiprostone crystal V is a novel crystalline form of Lubiprostone, and the crystalline form shown in FIG. 2 found in the unit cell of Lubiprostone crystal II by optical microscope is an enantiomorph of Lubiprostone, rather than Lubiprostone crystal V.

[3] = Crystal form stability of Lubiprostone crystal V in the third solvent used for seeded crystallization

SMILES: CCCCC(F)(F)[C@@]1(O)CC[C@H]2[C@@H](CC(=O)[C@@H]2CCCCCCC(=O)O)O1 [Lubiprostone crystal V, Lubiprostone]
- stability on storage (other crystalline forms, degraded products of impurity A) [1]: good stability
- conversion of crystalline form to Lubiprostone crystal I (XRPD) [2]: completely converted
- conversion of crystalline form to Lubiprostone crystal I ([3]; esters such as isopropyl acetate as third solvent): rapidly converted
- stability of crystal form against conversion to Lubiprostone crystal I ([3]; o-xylene, m-xylene, ethyl ether, isopropyl ether or methyl tert-butyl ether as third solvent): very stable
